In patent US20130165368A1, “ANTIMICROBIAL COMPOUNDS” (priority 2010, published 2013):
Read-outs that look alike come from different tables or passages of the source.

Key:
Format in all cases: cell-based
[1] = system: Staphylococcus epidermidis; assay: MIC agar dilution, micro-organism 14 (11047); conditions: Staphylococcus epidermidis 11047, read-out: MIC
Summary of the method: (§1)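 Agar dilution in Isosensitest/CCEY agar with egg yolk and lysed horse blood; compounds as aqueous emulsions (myristyl and lauryl alcohol with 1-methyl-2-pyrrolidone and Tween 20). 1 µL spots of 1/15-diluted 0.5 McFarland suspensions, 37 °C aerobic, read at 22 and 48 h; MIC (mmol/L) is lowest concentration giving <10 colonies.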

[2] = system: Enterococcus faecium (VRE) MB 305; assay: MIC agar dilution, VRE strain 25
Description: (§2) Molar equivalent concentrations were used to allow comparison between compounds of differing molecular mass. Due to weighing difficulties, any compound in solid form was melted in a water bath prior to dilution. To make ten-times strength concentrations, which takes into account agar dilution, 0.0352 mmol of each compound was weighed into plastic universal bottles and 4 mL of sterile distilled water (SDW) was added. To produce a homogenous emulsion the universals were vortexed; once achieved the emulsions were serial diluted by adding 2 mL to 2 mL of SDW.
(§3) For every 100 mL of Isosensitest agar (IST) (CM0471; Oxoid, Basingstoke, England), 3.1 g of the IST powder was added to 100 mL SDW (as per manufacturer's instructions) and sterilised for 15 minutes at 121° C. Once sterilised, the molten agar was cooled to 50° C. in a water-bath. Subsequently 4.8 g of CCEY powder (BC2160; Bioconnections, Wetherby, England), also known as Brazier's medium, was added to 100 mL SDW for every 100 mL of agar needed. This was then sterilised for 15 minutes at 121° C. Once sterilised the molten agar was cooled to 50° C. in a water-bath and 4 mL of egg-yolk emulsion (S2073; TCS Biosciences Ltd, Buckingham, United Kingdom) and 1 mL of lysed defibrinated horse blood (HB035; TCS Biosciences Ltd, Buckingham, United Kingdom) were also added for every 100 mL needed. Horse blood lysis is achieved by dilution to half concentration with SDW; when fully lysed the mixture will turn dark red in colour.
(§4) 18 mL agar was added to each universal and then poured into sterile Petri dishes. This step creates a 1/10 dilution resulting in agar plates of the required strength. Control plates for each set of strains were created by adding 18 mL of agar to 2 mL of SDW.
(§5) Suspensions of each bacterial species were prepared with a density equal to that of a 0.5 McFarland standard using a densitometer. All suspensions were made using sterile distilled water and fresh 18-20 hour cultures. As a 0.5 McFarland standard contains 1.5×10^8 CFU/mL and the multipoint inoculators applies 1 μL spots of liquid, each bacterial suspension was diluted 1/15 (20 μL suspension to 280 μL sterile distilled water).
(§6) Bacterial suspensions were prepared from fresh 18-24 hour cultures as previously described. 1 μL of each strain was inoculated onto all 100 agar plates containing a different chemical concentration and the 2 control plates. This was done using a multipoint inoculator which inoculates 20 strains per plate. All plates were incubated for 22 hours at 37° C. in aerobic conditions.
(§7) Each plate was examined for bacterial growth after 22 and 48 hours, with each being incubated in between examinations. A positive result was recorded as growth of ≧10 colonies. A negative result was recorded as growth of <10 colonies as this is equivalent to 99.9% inhibition. The lowest concentration of chemical that inhibited growth was recorded as the MIC. The results are recorded in Table IV below, where the numbers are quoted in mmol/L.
(§8) Given the positive performance of the ethoxylates of lauryl alcohol in reducing the MIC for a number of the micro-organisms tested, further MIC testing of Laureth-1 [C12E1] through to Laureth-8 [C12E8] was conducted on each of the following: • 10 strains of vancomycin-resistant enterococci (VRE)—listed in Table V below; and • 20 strains of methicillin-resistant Staphylococcus aureus (MRSA)—listed in Table VI.
(§9) The alkanol, alkanol derivatives, agar plates, and inocula were all prepared in the same way as described above.
(§10) The plates were examined in the same manner as described above and the results are recorded in Table VII below, where the numbers are quoted in mmol/L.

MRSA EMRSA 16 18200/95 = assay: MIC agar dilution, MRSA strain 48; conditions: Staphylococcus aureus
Description: as §2, §3, §4, §5, §6, §7, §8, §9, §10

MRSA EMRSA 15 21268/98 = assay: MIC agar dilution, MRSA strain 40; conditions: Staphylococcus aureus
Description: as §2, §3, §4, §5, §6, §7, §8, §9, §10

[3] = system: Staphylococcus aureus (MRSA); assay: MIC agar dilution, micro-organism 12 (11939); conditions: Staphylococcus aureus (MRSA) 11939, read-out: MIC
Summary of the method: as §1

MRSA FRA 95035 = assay: MIC agar dilution, MRSA strain 37; conditions: Staphylococcus aureus
Description: as §2, §3, §4, §5, §6, §7, §8, §9, §10

MRSA EMRSA 16 03732/95 = assay: MIC agar dilution, MRSA strain 45; conditions: Staphylococcus aureus
Description: as §2, §3, §4, §5, §6, §7, §8, §9, §10

Steptococcus pyogenes = assay: MIC agar dilution, micro-organism 11 (8306); conditions: Steptococcus pyogenes 8306, read-out: MIC
Summary of the method: as §1

MRSA BEL 97597 = assay: MIC agar dilution, MRSA strain 33; conditions: Staphylococcus aureus
Description: as §2, §3, §4, §5, §6, §7, §8, §9, §10

[4] = system: MRSA GER 1966/97 (Hanover IIIc); assay: MIC agar dilution, MRSA strain 36; conditions: Staphylococcus aureus
Description: as §2, §3, §4, §5, §6, §7, §8, §9, §10

Providencia rettgeri = assay: MIC agar dilution, micro-organism 3 (7475); conditions: Providencia rettgeri 7475, read-out: MIC
Summary of the method: as §1

MRSA EMRSA 16 00998/95 = assay: MIC agar dilution, MRSA strain 47; conditions: Staphylococcus aureus
Description: as §2, §3, §4, §5, §6, §7, §8, §9, §10

Candida glabrata = assay: MIC agar dilution, micro-organism 20 (3943); conditions: Nakaseomyces glabratus, Candida glabrata 3943, read-out: MIC
Summary of the method: as §1

Measured: MIC

CCCCCCCCCCCCOCCOCCOCCOCCOCCOCCOCCO [L7, Heptaethylene Glycol Monododecyl Ether]
> 880 µM: Providencia rettgeri; 22 hrs | Providencia rettgeri; 48 hrs | Candida glabrata; 22 hrs | Candida glabrata; 48 hrs
220 µM: [2]; 22 hrs | [2]; 48 hrs | MRSA EMRSA 16 18200/95; 22 hrs | [3]; 22 hrs | [3]; 48 hrs | MRSA BEL 97597; 22 hrs | MRSA BEL 97597; 48 hrs
> 440 µM: MRSA EMRSA 16 18200/95; 48 hrs | MRSA EMRSA 15 21268/98; 22 hrs | MRSA EMRSA 15 21268/98; 48 hrs | MRSA FRA 95035; 22 hrs | MRSA FRA 95035; 48 hrs | MRSA EMRSA 16 03732/95; 22 hrs | MRSA EMRSA 16 03732/95; 48 hrs | MRSA EMRSA 16 00998/95; 22 hrs | MRSA EMRSA 16 00998/95; 48 hrs
110 µM: [1]; 22 hrs | [1]; 48 hrs | Steptococcus pyogenes; 22 hrs | Steptococcus pyogenes; 48 hrs | [4]; 22 hrs | [4]; 48 hrs

CCCCCCCCCCCCOCCOCCOCCOCCOCCOCCOCCOCCO [L8, Octaethylene Glycol Monododecyl Ether]
> 440 µM: MRSA EMRSA 16 18200/95; 22 hrs | MRSA EMRSA 16 18200/95; 48 hrs | MRSA EMRSA 15 21268/98; 22 hrs | MRSA EMRSA 15 21268/98; 48 hrs | MRSA FRA 95035; 22 hrs | MRSA FRA 95035; 48 hrs | MRSA EMRSA 16 03732/95; 22 hrs | MRSA EMRSA 16 03732/95; 48 hrs | MRSA BEL 97597; 48 hrs | MRSA EMRSA 16 00998/95; 22 hrs | MRSA EMRSA 16 00998/95; 48 hrs
440 µM: [3]; Staphylococcus aureus, MRSA, 48 h, 48 hrs
≤ 50 µM: Steptococcus pyogenes; 22 h, 22 hrs | Steptococcus pyogenes; 48 h, 48 hrs
220 µM: [3]; Staphylococcus aureus, MRSA, 22 h, 22 hrs | MRSA BEL 97597; 22 hrs
110 µM: [1]; 22 hrs | [1]; 48 hrs | [4]; 22 hrs | [4]; 48 hrs
> 880 µM: [2]; 22 hrs | [2]; 48 hrs | Providencia rettgeri; 22 hrs | Providencia rettgeri; 48 hrs | Candida glabrata; 22 h, 22 hrs | Candida glabrata; 48 h, 48 hrs
